Assays:
Type in all cases: physicochemical, human
[1] = LC/MS of blood plasma sample: number of times of freezing and thawing (Table F); conditions: for Rate of increase or decrease: detection intensity relative to 1 at 2 times; for Increase or decrease: detection intensity
Description: (§1) At room temperature, 5 mL of blood from a healthy subject was taken into a blood-collecting vessel containing EDTA, and the blood-collecting vessel was inverted for mixing, then cooled, and allowed to stand at 4° C. Here, in order to investigate how the detection intensity of molecules contained in the sample was affected in a case where the time to cooling was set to 5 minutes or more as compared to that in a case where the time to cooling was set to 1 minute or less, preparations were performed under both the former condition and the latter condition. After standing, the blood sample was subjected to centrifugation under a condition of 4° C., 3000 rpm, and 15 minutes. […] After centrifugation, the blood-collecting vessel was left to stand at room temperature for 30 minutes, and the blood plasma was isolated during this 30 minutes. The obtained blood plasma sample was frozen and stored. Here, in order to investigate how the detection intensity of molecules contained in the sample was affected in cases where freezing and thawing was performed 4 times, 6 times, and 10 times after freezing as compared to that in a case where freezing and thawing was performed 2 times after freezing, freezing and thawing was performed under the respective conditions of 2, 4, 6, and 10 times.
(§2) Frozen blood plasma samples and serum samples were subjected to GC/MS or LC/MS. In GC/MS, the blood plasma samples and serum samples were subjected to methoxymation and trimethylsilylation and then introduced to GC-MS.
(§3) Analysis column: Discovery HS F5-3 (inner diameter of 2.1 mm, length of 150 mm, film thickness of 3 μm) (Sigma-Aldrich)
(§4) Column temperature: 40° C.
(§5) (A) 0.1% formic acid (dissolved in water)
(§6) (B) 0.1% formic acid (dissolved in acetonitrile)
(§7) Flow velocity: 0.25 mL/min
(§8) Ionization method: electrospray
(§9) Temperature: • Desolvation Line (DL) temperature: 250° C. • Heat block temperature: 400° C. • Interface temperature: 300° C.
(§10) Gas flow rate: • Nebulizer gas flow rate: 3.0 L/min • Drying gas flow rate: 10.0 L/min • Heating gas flow rate: 10.0 L/min
(§11) Mode: multiple reaction monitoring (MRM)
The rate of increase or decrease in Table F is the value of detection intensity relative to 1 that is the detection intensity in a case where the number of times of freezing and thawing is set to 2 times.

[2] = GC/MS of serum sample: number of times of freezing and thawing (Table I); parameters: key to Rate of increase or decrease / Rate of increase or decrease (first value, increase): detection intensity relative to 2 freeze-thaw cycles = 1; conditions: serum, GC/MS; for Rate of increase or decrease: detection intensity relative to 1 at 2 times; for Increase or decrease: detection intensity
How it was run: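 Detection intensities are ratios to the value after two freeze–thaw cycles, which is set as 1, compared against 4, 6 and 10 cycles. Analysis used methoxymation and trimethylsilylation derivatization, then GC/MS with EI ionization and multiple reaction monitoring on a BPX5 column. Serum came from blood held at room temperature and spun at 3500 rpm for 5 min.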

[3] = LC/MS of serum sample: number of times of freezing and thawing (Table M); parameters: key to Rate of increase or decrease: detection intensity relative to 1 at 2 freeze-thaw cycles; conditions: for Number of times when compound is affected / Increase or decrease: serum sample, LC/MS; for Number of times when compound is affected: detection intensity changed by 30% or more vs 2 times of freezing and thawing; for Increase or decrease: detection intensity vs 2 times of freezing and thawing
How it was run: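 Values are detection intensities relative to serum thawed twice, versus 4, 6 or 10 freeze-thaw cycles. Serum came from blood spun at room temperature, 3500 rpm for 5 minutes. Analysis: electrospray LC/MS in MRM mode, Discovery HS F5-3 column, 40° C, 0.1% formic acid in water and acetonitrile.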

[4] = LC/MS of blood plasma sample: time from blood collection to centrifugation (Table D); conditions: for Rate of increase or decrease: detection intensity relative to 1 at 15 minutes; for Rate of increase or decrease / Increase or decrease: blood collection to centrifugation; for Increase or decrease: detection intensity
Description: as §1, §2, §3, §4, §5, §6, §7, §8, §9, §10, §11
The rate of increase or decrease in Table D is the value of detection intensity relative to 1 that is the detection intensity in a case where the time from blood collection to centrifugation is set to 15 minutes.

[5] = LC/MS of serum sample: time from blood collection to centrifugation (Table J); conditions: for Rate of increase or decrease: detection intensity relative to 1 at 15 minutes; for Increase or decrease / Time when compound is affected: serum sample, LC/MS; for Increase or decrease: detection intensity vs 15 minutes from blood collection to centrifugation; for Time when compound is affected: time from blood collection to centrifugation, detection intensity changed by 30% or more vs 15 minutes
Description: After standing, the blood sample was subjected to centrifugation under a condition of room temperature, 3500 rpm, and 5 minutes. […] After centrifugation, the blood-collecting vessel was left to stand at room temperature, and the serum was isolated during this time. Here, in order to investigate how the detection intensity of molecules contained in the sample was affected in cases where the time during which the blood-collecting vessel was left at room temperature was set to 1 hour and 6 hours as compared to that in a case where the time was set to 30 minutes, preparations were performed under the respective conditions of 30 minutes, 1 hour, and 6 hours. The obtained serum sample was frozen and stored. Here, in order to investigate how the detection intensity of molecules contained in the sample was affected in cases where freezing and thawing was performed 4 times, 6 times, and 10 times after freezing as compared to that in a case where freezing and thawing was performed 2 times after freezing, freezing and thawing was performed under the respective conditions of 2, 4, 6, and 10 times.
as §2, §3, §4, §5, §6, §7, §8, §9, §10, §11
The rate of increase or decrease in Table J is the value of detection intensity relative to 1 that is the detection intensity in a case where the time from blood collection to centrifugation is set to 15 minutes.

[6] = GC/MS of blood plasma sample: time from blood collection to cooling of blood (Table B); parameters: key to Rate of increase or decrease / Rate of increase or decrease (first value, increase): detection intensity relative to 1 at cooling time ≤1 min
Description: as §1, §2
GC/MS was conducted using GCMS·TQ8040 (Shimadzu Corporation) that was a GC·MS equipped with AOC·20i (Shimadzu Corporation) as an autosampler.
Column: BPX5 (inner diameter of 0.25 mm, length of 30 m, and film thickness of 0.25 μm) (SGE)
Column temperature: maintained at 60° C. for 2 minutes, then raised at 15° C./min, and maintained at 330° C. for 3 minutes.
Inlet temperature: 250° C.
Carrier gas control mode: constant linear velocity of 39.0 cm/sec
Sample introduction method: split (split ratio of 30:1) Injection volume: 1 μL
Ionization method: electron ionization
Ionization current: 60 μA
Interface temperature: 280° C.
Ion source temperature: 200° C.
as §11
Table B presents compounds of which the detection intensity increased or decreased by 30% or more in a case where the time from blood collection to cooling of blood, when a blood plasma sample was analyzed by GC/MS, was set to 5 minutes or more as compared to that in a case where the time was set to 1 minute or less. The rate of increase or decrease in Table B is the value of detection intensity relative to 1 that is the detection intensity in a case where the time from blood collection to cooling is set to 1 minute or less.

[7] = freezing and thawing 4 times vs 2 times
[8] = freezing and thawing 10 times vs 2 times
[9] = 6 times of freezing and thawing, detection intensity relative to 1 at 2 times
[10] = after 6 hours from blood collection to centrifugation
[11] = after 12 hours from blood collection to centrifugation

Compound | Rate of increase or decrease [3, 9] | Number of times when compound is affected [3] | Increase or decrease [3] | Increase or decrease [5] | Time when compound is affected [5] | Rate of increase or decrease ([1]; freezing and thawing 10 times) | Increase or decrease [1, 8] | Rate of increase or decrease [5, 11] | other results
N=C(N)NCCC[C@H](N)C(=O)O [Arginine] | 0.64 | 6 times | Decrease | Decrease | After 6 hours | – | – | – | Rate of increase or decrease ([1]; freezing and thawing 4 times): 1.34; Increase or decrease [1, 7]: Increase; Rate of increase or decrease ([2]; freezing and thawing 10 times): 1.51; Increase or decrease [2, 8]: Increase; Rate of increase or decrease ([4]; after 6 hours): 0.69; Increase or decrease ([4]; after 6 hours vs 15 minutes): Decrease; Rate of increase or decrease [5, 10]: 0.54
N[C@@H](CCC(=O)O)C(=O)O [Glutamic acid] | – | 10 times | Decrease | Increase | After 4 hours | 5.21 | Increase | – | Rate of increase or decrease ([3]; 10 times of freezing and thawing, detection intensity relative to 1 at 2 times): 0.63; Rate of increase or decrease ([5]; after 4 hours from blood collection to centrifugation): 3.09
O=CC(=O)O [Glyoxylic acid] | – | – | – | – | – | – | – | – | Rate of increase or decrease ([6]; detection intensity relative to 1 at 1 minute or less, blood collection to cooling 5 minutes): 1.37; Increase or decrease ([6]; detection intensity, blood collection to cooling 5 minutes or more vs 1 minute or less): Increase; Rate of increase or decrease ([2]; freezing and thawing 4 times): 0.63; Increase or decrease [2, 7]: Decrease
O=C(O)CCC(=O)O [Succinic acid] | – | 4 times | Increase | Increase | After 6 hours | – | – | – | Rate of increase or decrease ([1]; freezing and thawing 4 times): 1.46; Increase or decrease [1, 7]: Increase; Rate of increase or decrease ([3]; 4 times of freezing and thawing, detection intensity relative to 1 at 2 times): 1.47; Rate of increase or decrease ([4]; after 4 hours): 0.50; Rate of increase or decrease ([4]; after 6 hours): 0.61; Increase or decrease ([4]; after 4 hours vs 15 minutes): Decrease; Increase or decrease ([4]; after 6 hours vs 15 minutes): Decrease; Rate of increase or decrease [5, 10]: 1.57

Further lines, with some results ahead:

Rate of increase or decrease [3, 9] | Number of times when compound is affected [3] | Increase or decrease [3] | Increase or decrease [5] | Time when compound is affected [5] | Rate of increase or decrease ([1]; freezing and thawing 10 times) | Increase or decrease [1, 8] | Rate of increase or decrease [5, 11] | Compound | other results
0.69 | 6 times | Decrease | Increase | After 12 hours | – | Increase | 1.50 | NCC(=O)O [Glycine] | –
0.61 | 6 times | Decrease | Increase | After 12 hours | 1.36 | Increase | 1.46 | N[C@@H](Cc1c[nH]cn1)C(=O)O [Histidine] | –
– | 6 times | Different from individual | Increase | After 12 hours | 1.44 | Increase | 1.34 | CC[C@H](C)[C@H](N)C(=O)O [Isoleucine] | Rate of increase or decrease ([3]; 6 times of freezing and thawing, relative to 1 at 2 times, different from individual to individual, first value (increase)): 1.33; Rate of increase or decrease ([3]; 6 times of freezing and thawing, relative to 1 at 2 times, different from individual to individual, second value (decrease)): 0.66; Increase or decrease ([4]; after 12 hours vs 15 minutes): Different from individual; Rate of increase or decrease (second value, decrease) ([4]; different from individual to individual, individuals with decrease, relative to 1 at 15 minutes, collection to centrifugation, after 12 hours): 0.65; Rate of increase or decrease (first value, increase) ([4]; different from individual to individual, individuals with increase, relative to 1 at 15 minutes, collection to centrifugation, after 12 hours): 1.31
0.66 | 6 times | Decrease | Increase | After 12 hours | 1.35 | Increase | 1.35 | CC(C)C[C@H](N)C(=O)O [Leucine] | Rate of increase or decrease ([4]; after 12 hours): 0.69; Increase or decrease ([4]; after 12 hours vs 15 minutes): Decrease
